The values that follow come from patent US20060257400A1, “COMBINATION THERAPY” (Bristol-Myers Squibb Company, priority 2005, published 2006).

The structures appear in SMILES notation.

The test system of this assay is Human L2987 lung carcinomas. Nature of the assay: Antitumor testing, s.c. L2987 xenografts in nude mice. Type of assay: in vivo. The note with it: athymic nude mice, s.c. L2987 tumors established at 100-200 mm^3; Compound I 100 mg/Kg daily; Erbitux 1 mg per mouse every three days, 5 doses; combination given essentially simultaneously. Here is the method: Animals. […] They were fed food and water ad libitum. All studies involving these animals were conducted in accordance with NIH (Bethesda, Md.) and Bristol Myers-Squibb animal care and use guidelines.
Tumors. […] All efficacy testing involved tumors implanted s.c. in nude mice.

As for `Cc1cc2c(F)c(Oc3ncnn4cc(OC[C@@H](C)OC(=O)[C@H](C)N)c(C)c34)ccc2[nH]1` [Compound I], the “delay of tumor growth to target tumor size of 500 mm^3 compared to vehicle treated control group” value is recorded as “ten”.
